Measured values as given in patent US8513271B2, “Pyrimidine compounds as delta opioid receptor modulators” (Janssen Pharmaceutica, NV, priority 2009, dated 2013).
Where two headings read alike, the source gives them in different places.

Molecular target: T1, delta opioid receptor (Mus musculus, UniProt P32300)
T1 construct: NG108-15 cell membranes were purchased from Applied Cell Sciences (Rockville, Md.); host or cells: NG108-15 cell membranes
Assay: [35S]GTPγS binding assay in NG108-15 cell membranes (delta opioid functional assay), 200 nM screen
Assay type: biochemical
Settings: NG108-15 cell membranes; for GTPγS δ-RelEfficacy @200 nM: 200 nM test compound, relative to calculated max of SNC80 dose response curve; for GTPγS δ-RelEfficacy @200 nM / EC50: averages if tested more than once; for GTPγS δ-opioid receptor Rel Efficacy: relative efficacy from dose response

[1] = read-out: GTPγS δ-opioid receptor EC50
[2] = GTPγS δ-opioid receptor EC50 (μM)

T1 sequence (P32300 whole entry): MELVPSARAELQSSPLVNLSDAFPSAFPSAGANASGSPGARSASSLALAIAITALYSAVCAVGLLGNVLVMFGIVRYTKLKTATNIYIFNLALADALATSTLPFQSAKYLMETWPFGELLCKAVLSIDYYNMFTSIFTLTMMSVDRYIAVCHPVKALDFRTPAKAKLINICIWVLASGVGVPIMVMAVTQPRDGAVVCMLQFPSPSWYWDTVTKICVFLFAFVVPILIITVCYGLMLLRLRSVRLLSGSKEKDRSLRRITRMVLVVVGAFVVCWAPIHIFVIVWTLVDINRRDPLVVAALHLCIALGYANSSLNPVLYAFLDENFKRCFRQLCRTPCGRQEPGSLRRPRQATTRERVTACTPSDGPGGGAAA

SMILES	GTPγS δ-RelEfficacy @200 nM	EC50 [1]	GTPγS δ-opioid receptor Rel Efficacy	EC50 [2]
Nc1ccc(Oc2nc(-c3cncc(F)c3)ncc2NC[C@@H]2CCCN2)cc1 [Cpd 198, [4-(4-Amino-phenoxy)-2-(5-fluoro-pyridin-3-yl)-pyrimidin-5-yl]-pyrrolidin-2-(S)-ylmethyl-amine]	0.513	0.118 µM	1.050	–
COc1ccc(Oc2nc(-c3cncc(C#N)c3)ncc2N[C@H]2CCCNC2)cc1 [Cpd 199]	0.615	–	1.140	–
Cc1cccc(Oc2nc(-c3cncc(C#N)c3)ncc2NC[C@@H]2CCCN2)c1 [Cpd 200]	0.289	–	–	–
Cc1cccc(Oc2nc(-c3cncc(Cl)c3)ncc2NC[C@@H]2CCCN2)c1 [Cpd 201]	0.148	–	–	–
Cc1cccc(Oc2nc(-c3cncc(F)c3)ncc2NC[C@@H]2CCCN2)c1 [Cpd 202]	0.122	–	–	–
Cc1cccc(Oc2nc(-c3cccnc3)ncc2NC[C@@H]2CCCN2)c1 [Cpd 203]	0.096	–	–	–
COc1ccc(Oc2nc(-c3cncc(C#N)c3)ncc2NC[C@@H]2CCCN2)cc1C [Cpd 204]	0.911	–	0.982	0.026 µM
COc1ccc(Oc2nc(-c3cncc(F)c3)ncc2NC[C@@H]2CCCN2)cc1C [Cpd 205]	0.609	–	1.178	0.044 µM
N#Cc1cncc(-c2ncc(NC[C@@H]3CCCN3)c(Oc3ccc(CF)cc3)n2)c1 [Cpd 206]	0.292	–	–	–
COc1ccc(Oc2nc(-c3cncc(C#N)c3)ncc2N[C@H]2CCCNC2)cc1 [Cpd 207]	0.963	–	1.047	–
COc1ccc(Oc2nc(-c3cncc(C#N)c3)ncc2NC2CCNCC2)cc1 [Cpd 208]	0.398	–	–	–
c1cncc(Cc2ccc(Oc3nc(-c4cccnc4)ncc3NC[C@@H]3CCCN3)cc2)c1 [Cpd 209, [2-Pyridin-3-yl-4-(4-pyridin-3-ylmethyl-phenoxy)-pyrimidin-5-yl]-pyrrolidin-2-(S)-ylmethyl-amine]	0.002	–	–	–
COc1ccc(Oc2nc(-c3cncc(Cl)c3)ncc2NC[C@@H]2CCCN2)cc1C [Cpd 210]	0.730	–	1.150	0.044 µM
COc1ccc(Oc2nc(-c3cccnc3)ncc2NC[C@@H]2CCCN2)cc1C [Cpd 211]	0.814	0.106 µM	1.050	–
CC(=O)Nc1ccc(Oc2nc(-c3cncc(F)c3)ncc2NC[C@@H]2CCCN2)cc1 [Cpd 212]	–	–	0.994	0.029 µM
CS(=O)(=O)Nc1ccc(Oc2nc(-c3cncc(F)c3)ncc2NC[C@@H]2CCCN2)cc1 [Cpd 213, N-(4-{2-(5-Fluoro-pyridin-3-yl)-5-[(pyrrolidin-2-(S)-ylmethyl)-amino]-pyrimidin-4-yloxy}-phenyl)-methanesulfonamide]	0.079	–	–	–
CS(=O)(=O)Nc1ccc(Oc2nc(-c3cccnc3)ncc2NC[C@@H]2CCCN2)cc1 [Cpd 214]	0.115	–	–	–

SMILES	GTPγS δ-RelEfficacy @200 nM	EC50 [1]	GTPγS δ-opioid receptor Rel Efficacy	EC50 [2]
COc1ccc(Oc2nc(-c3cncc(C#N)c3)ncc2NCC2CNC2)cc1 [Cpd 215]	0.674	0.128 µM	1.002	–
O=CNc1ccc(Oc2nc(-c3cccnc3)ncc2NC[C@@H]2CCCN2)cc1 [Cpd 216]	0.406	0.494 µM	0.969	–
FCc1ccc(Oc2nc(-c3cccnc3)ncc2NC[C@@H]2CCCN2)cc1 [Cpd 217, [4-(4-Fluoromethyl-phenoxy)-2-pyridin-3-yl-pyrimidin-5-yl]-pyrrolidin-2-(S)-ylmethyl-amine]	0.480	0.612 µM	0.882	–
Cc1cc(Oc2nc(-c3cncc(C#N)c3)ncc2NC[C@@H]2CCCN2)ccc1F [Cpd 218]	0.642	0.353 µM	0.960	–
Cc1cc(Oc2nc(-c3cncc(F)c3)ncc2NC[C@@H]2CCCN2)ccc1F [Cpd 219]	0.475	> 1 µM	–	–
N#Cc1cncc(-c2ncc(NC[C@@H]3CCCN3)c(Oc3ccc(C(F)(F)F)cc3)n2)c1 [Cpd 220]	0.457	0.454 µM	0.890	–
Fc1cncc(-c2ncc(NC[C@@H]3CCCN3)c(Oc3ccc(C(F)(F)F)cc3)n2)c1 [Cpd 221]	0.324	–	–	–
CS(=O)(=O)c1ccc(Oc2nc(-c3cncc(F)c3)ncc2NC[C@@H]2CCCN2)cc1 [Cpd 222]	0.284	–	–	–
O=CNc1ccc(Oc2nc(-c3cncc(F)c3)ncc2NC[C@@H]2CCCN2)cc1 [Cpd 223]	0.802	0.152 µM	0.986	–
COc1ccc(Oc2nc(-c3cccnc3)ncc2N[C@@H]2CCNC2)cc1 [Cpd 224]	0.460	0.214 µM	1.104	–
COc1ccc(Oc2nc(-c3cccnc3)ncc2NC[C@@H]2CCCCN2)cc1 [Cpd 225]	0.260	0.483 µM	0.718	–
COc1ccc(Oc2nc(-c3cccnc3)ncc2NC2CNC2)cc1 [Cpd 226]	0.320	–	–	–
Cc1ccccc1Oc1nc(-c2cncc(Cl)c2)ncc1NC[C@@H]1CCCN1 [Cpd 227]	0.480	0.246 µM	1.093	–
CC(=O)Oc1cccc(Oc2nc(-c3cncc(C#N)c3)ncc2NC[C@@H]2CCCN2)c1 [Cpd 228]	1.039	–	1.082	0.006 µM
Clc1cncc(-c2ncc(NC[C@@H]3CCCN3)c(Oc3ccccc3Cl)n2)c1 [Cpd 229]	0.715	–	0.890	0.061 µM
N#Cc1cncc(-c2ncc(NC[C@@H]3CCCN3)c(Oc3ccccc3Cl)n2)c1 [Cpd 230]	0.847	–	–	–
N#Cc1cncc(-c2ncc(NC[C@@H]3CCCN3)c(Oc3cccc(O)c3)n2)c1 [Cpd 231]	1.159	–	1.113	0.005 µM
